Among the data in patent publication US8779142B2, “Azabicyclo compound and salt thereof” (Taiho Pharmaceutical Co., Ltd., priority 2009, dated 2014) are IC50 values, retold here.

One may read the pIC50 as −log10 of the IC50, conventionally taken in molar units.

The target of test [1] is human HSP90 alpha protein (HSP90 N-terminal protein, amino acids 2-236) (Homo sapiens (Human), UniProt P07900). Description: Measurement of HSP90-binding activity (AlphaScreen competitive assay, biotin-labeled geldanamycin). As to conditions: concentration inhibiting binding of biotin-labeled geldanamycin (40 nM) to purified HSP90 to 50% of control; read-out: HSP-binding activity IC50. A general note: In Alpha technology, singlet oxygen from a donor bead excites a nearby acceptor bead.

Test [2] deals with SK-BR-3 cells. Description: Measurement of cell growth inhibition (crystal violet staining method). The conditions noted are these: Homo sapiens; breast cancer SK-BR-3 cells, 72 hr culture with test substance. In kind it is cell-based.

pIC50: −log10 of the molar value.

Turning to `CC(C)Nc1cc(C(N)=O)ccc1-n1nc(C(F)(F)F)c2c(-n3cnc(-c4cccnc4)c3)ccnc21` [Example 181, 3-(Isopropylamino)-4-{4-(4-(pyridin-3-yl)-1H-imidazol-1-yl)-3-(trifluoromethyl)-1H-pyrazolo[3,4-b]pyridin-1-yl}benzamide], the values for the pIC50 in test [1] and in test [2] were 6.85 and 6.92, respectively.
In the same order, the values of `NC(=O)c1ccc(-n2nc(C(F)(F)F)c3c(-n4cnc(-c5cccnc5)c4)ccnc32)c(NC2CCC2)c1` [Example 182, 3-(Cyclobutylamino)-4-{4-(4-(pyridin-3-yl)-1H-imidazol-1-yl)-3-(trifluoromethyl)-1H-pyrazolo[3,4-b]pyridin-1-yl}benzamide] are 6.70 and 6.89.
In the same order, the values of `NC(=O)c1ccc(-n2nc(C(F)(F)F)c3c(-n4cnc(-c5cccnc5)c4)ccnc32)c(NC2CCCC2)c1` [Example 183, 3-(Cyclopentylamino)-4-{4-(4-(pyridin-3-yl)-1H-imidazol-1-yl)-3-(trifluoromethyl)-1H-pyrazolo[3,4-b]pyridin-1-yl}benzamide] are 6.48 and 6.82.
In the same order, the values of `CCn1cc(-c2cn(-c3ccnc4c3c(C(F)(F)F)nn4-c3ccc(C(N)=O)cc3N)cn2)cn1` [Example 184, 3-Amino-4-{4-(4-(1-ethyl-1H-pyrazol-4-yl)-1H-imidazol-1-yl)-3-(trifluoromethyl)-1H-pyrazolo[3,4-b]pyridin-1-yl}benzamide] are 6.64 and 6.39.
In the case of `CCNc1cc(C(N)=O)ccc1-n1nc(C(F)(F)F)c2c(-n3cnc(-c4cnn(CC)c4)c3)ccnc21` [Example 185, 4-{4-(4-(1-Ethyl-1H-pyrazol-4-yl)-1H-imidazol-1-yl)-3-(trifluoromethyl)-1H-pyrazolo[3,4-b]pyridin-1-yl}-3-(ethylamino)benzamide], the pIC50 in test [1] is 6.72; in test [2] it was 6.68.
Regarding `CC(C)n1cc(-c2cn(-c3ccnc4c3c(C(F)(F)F)nn4-c3ccc(C(N)=O)cc3N)cn2)cn1` [Example 186, 3-Amino-4-{4-(4-(1-isopropyl-1H-pyrazol-4-yl)-1H-imidazol-1-yl)-3-(trifluoromethyl)-1H-pyrazolo[3,4-b]pyridin-1-yl}benzamide], the negative-log IC50 (pIC50) in test [1] is 6.10; in test [2], 5.71.
`CCNc1cc(C(N)=O)ccc1-n1nc(C(F)(F)F)c2c(-n3cnc(-c4cnn(C(C)C)c4)c3)ccnc21` [Example 187, 3-(Ethylamino)-4-{4-(4-(1-isopropyl-1H-pyrazol-4-yl)-1H-imidazol-1-yl)-3-(trifluoromethyl)-1H-pyrazolo[3,4-b]pyridin-1-yl}benzamide]: the pIC50 in test [1] was 6.21; in test [2], 6.15.
